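Results reflect a 48-hour exposure of cells in 96-well plates to compound at five concentrations. The concentration for 50% growth inhibition is given as GI50. TGI is the concentration that stops growth completely.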
How the values were obtained:
Assay in all cases: DTP human tumour cell line panel, 48 h
UACC-62 melanoma = test system: UACC-62 melanoma
HCC-2998 colon = test system: HCC-2998 colon
OVCAR-3 ovarian = test system: OVCAR-3 ovarian
K-562 leukemia = test system: K-562 leukemia
A498 renal = test system: A498 renal
SR leukemia = test system: SR leukemia
MALME-3M melanoma = test system: MALME-3M melanoma
OVCAR-4 ovarian = test system: OVCAR-4 ovarian
CCRF-CEM leukemia = test system: CCRF-CEM leukemia
IGROV1 ovarian = test system: IGROV1 ovarian
SF-268 CNS = test system: SF-268 CNS
SK-MEL-2 melanoma = test system: SK-MEL-2 melanoma
MDA-MB-231 breast = test system: MDA-MB-231 breast
SF-539 CNS = test system: SF-539 CNS
EKVX NSCLC = test system: EKVX NSCLC
SNB-19 CNS = test system: SNB-19 CNS
HT29 colon = test system: HT29 colon
HOP-92 NSCLC = test system: HOP-92 NSCLC
CAKI-1 renal = test system: CAKI-1 renal
TK-10 renal = test system: TK-10 renal
MCF7 breast = test system: MCF7 breast
RPMI-8226 leukemia = test system: RPMI-8226 leukemia
SF-295 CNS = test system: SF-295 CNS
HCT-15 colon = test system: HCT-15 colon
SK-MEL-28 melanoma = test system: SK-MEL-28 melanoma
NCI-H23 lung = test system: NCI-H23 lung
DU-145 prostate = test system: DU-145 prostate
NCI-H226 lung = test system: NCI-H226 lung
UO-31 renal = test system: UO-31 renal
SW-620 colon = test system: SW-620 colon
OVCAR-8 ovarian = test system: OVCAR-8 ovarian
COLO 205 colon = test system: COLO 205 colon
PC-3 prostate = test system: PC-3 prostate
SK-OV-3 ovarian = test system: SK-OV-3 ovarian
KM12 colon = test system: KM12 colon
SK-MEL-5 melanoma = test system: SK-MEL-5 melanoma
NCI-H460 lung = test system: NCI-H460 lung
A549 NSCLC = test system: A549 NSCLC
BT-549 breast = test system: BT-549 breast
UACC-257 melanoma = test system: UACC-257 melanoma
SN12C renal = test system: SN12C renal
NCI/ADR-RES ovarian = test system: NCI/ADR-RES ovarian
OVCAR-5 ovarian = test system: OVCAR-5 ovarian
LOX IMVI melanoma = test system: LOX IMVI melanoma
ACHN renal = test system: ACHN renal
HCT-116 colon = test system: HCT-116 colon
NCI-H522 lung = test system: NCI-H522 lung
HOP-62 NSCLC = test system: HOP-62 NSCLC
MOLT-4 leukemia = test system: MOLT-4 leukemia
T-47D breast = test system: T-47D breast
HS 578T breast = test system: HS 578T breast
M14 melanoma = test system: M14 melanoma
U251 CNS = test system: U251 CNS
MDA-MB-435 = test system: MDA-MB-435
HL-60(TB) leukemia = test system: HL-60(TB) leukemia
786-0 renal = test system: 786-0 renal
SNB-75 CNS = test system: SNB-75 CNS

## Nc1n[nH]c2ccc([C@@H]3Nc4c(F)cc5[nH]ncc5c4[C@H]4C5CCC(C5)[C@@H]34)cc12 (some centres undefined)
UACC-62 melanoma
  GI50: 242 nM
  TGI: > 44900 nM
HCC-2998 colon
  GI50: 390 nM
  TGI: 22200 nM
OVCAR-3 ovarian
  GI50: 216 nM
  TGI: 735 nM
K-562 leukemia
  GI50: 54.6 nM
  TGI: > 52100 nM
A498 renal
  GI50: 41.3 nM
  TGI: 337 nM
SR leukemia
  GI50: 77.9 nM
  TGI: 15100 nM
MALME-3M melanoma
  GI50: 1380 nM
  TGI: > 57900 nM
OVCAR-4 ovarian
  GI50: 5810 nM
  TGI: > 85800 nM
CCRF-CEM leukemia
  GI50: 332 nM
  TGI: > 52100 nM
IGROV1 ovarian
  GI50: 391 nM
  TGI: > 46200 nM
SF-268 CNS
  GI50: 2340 nM
  TGI: > 47500 nM
SK-MEL-2 melanoma
  GI50: 598 nM
  TGI: > 44300 nM
MDA-MB-231 breast
  GI50: 732 nM
  TGI: > 47000 nM
SF-539 CNS
  GI50: 157 nM
  TGI: 598 nM
EKVX NSCLC
  GI50: 632 nM
  TGI: > 71500 nM
SNB-19 CNS
  GI50: 515 nM
  TGI: > 62900 nM
HT29 colon
  GI50: 317 nM
  TGI: > 34400 nM
HOP-92 NSCLC
  GI50: 1480 nM
  TGI: > 29300 nM
CAKI-1 renal
  GI50: 329 nM
  TGI: > 47500 nM
TK-10 renal
  GI50: 5600 nM
  TGI: > 79400 nM
MCF7 breast
  GI50: 70.2 nM
  TGI: > 43400 nM
RPMI-8226 leukemia
  GI50: 472 nM
  TGI: 24600 nM
SF-295 CNS
  GI50: 110 nM
  TGI: 18400 nM
HCT-15 colon
  GI50: 222 nM
  TGI: > 41500 nM
SK-MEL-28 melanoma
  GI50: 2190 nM
  TGI: > 60700 nM
NCI-H23 lung
  GI50: 460 nM
  TGI: 21800 nM
DU-145 prostate
  GI50: 419 nM
  TGI: > 46200 nM
NCI-H226 lung
  GI50: 629 nM
  TGI: > 19900 nM
UO-31 renal
  GI50: 587 nM
  TGI: > 52600 nM
SW-620 colon
  GI50: 318 nM
  TGI: > 49100 nM
OVCAR-8 ovarian
  GI50: 468 nM
  TGI: > 100000 nM
COLO 205 colon
  GI50: 337 nM
  TGI: 1670 nM
PC-3 prostate
  GI50: 331 nM
  TGI: > 46200 nM
SK-OV-3 ovarian
  GI50: 686 nM
  TGI: > 58200 nM
KM12 colon
  GI50: 287 nM
  TGI: 4870 nM
SK-MEL-5 melanoma
  GI50: 600 nM
  TGI: 4940 nM
NCI-H460 lung
  GI50: 352 nM
  TGI: > 31900 nM
A549 NSCLC
  GI50: 352 nM
  TGI: > 100000 nM
BT-549 breast
  GI50: 374 nM
  TGI: > 31800 nM
UACC-257 melanoma
  GI50: 7780 nM
  TGI: > 79300 nM
SN12C renal
  GI50: 544 nM
  TGI: > 54900 nM
NCI/ADR-RES ovarian
  GI50: 234 nM
  TGI: 5840 nM
OVCAR-5 ovarian
  GI50: 612 nM
  TGI: > 55700 nM
LOX IMVI melanoma
  GI50: 539 nM
  TGI: 23900 nM
ACHN renal
  GI50: 912 nM
  TGI: > 64700 nM
HCT-116 colon
  GI50: 293 nM
  TGI: 6220 nM
NCI-H522 lung
  GI50: 102 nM
  TGI: 2170 nM
HOP-62 NSCLC
  GI50: 432 nM
  TGI: 38500 nM
MOLT-4 leukemia
  GI50: 439 nM
  TGI: > 45500 nM
T-47D breast
  GI50: 509 nM
  TGI: > 100000 nM
HS 578T breast
  GI50: 178 nM
  TGI: 8780 nM
M14 melanoma
  GI50: 206 nM
  TGI: > 32800 nM
U251 CNS
  GI50: 376 nM
  TGI: 17300 nM
MDA-MB-435
  GI50: 32.7 nM
  TGI: 161 nM
HL-60(TB) leukemia
  GI50: 243 nM
  TGI: 642 nM
786-0 renal
  GI50: 740 nM
  TGI: 25000 nM
SNB-75 CNS
  GI50: 99.3 nM
  TGI: 7250 nM
